Data reported in US20230047825A1, “ANTIMICROBIAL PEPTIDES” (priority 2019, published 2023).
Values after ≈ are worked out from the molar mass of the structure shown. Read-outs that look alike come from different tables or passages of the source. Marks after values point to notes of the source that are not given here. Where a SMILES comes first, the peptide text is derived from it.

Key:
[1] = system: Acinetobacter baumannii AYE; type: cell-based; settings: for MIC on initial panels: medium and unit not given; for MIC on initial panels / MIC: in µg/mL; for MIC: untitled table, medium/unit not given, values match RPMI of Table 2
[2] = system: Acinetobacter baumannii ATCC 17978; type: cell-based; settings: in µg/mL; for MIC on initial panels / MIC: AB17978; for MIC on initial panels: medium and unit not given; for MIC: untitled table, medium/unit not given, values match RPMI of Table 2; for MIC, Stability in serum (MH): Ab17978
[3] = system: Pseudomonas aeruginosa PA01; test: Antibacterial activity assay (broth microdilution MIC); type: cell-based; settings: for MIC, Stability in serum (MH) / MIC on initial panels: in µg/mL; for MIC on initial panels: medium and unit not given; for MIC: untitled table, medium/unit inferred, values match RPMI of Table 2
[4] = system: Pseudomonas aeruginosa NCTC 13437; test: as above; type: cell-based; settings: PA13437, in µg/mL; for MIC on initial panels: medium and unit not given; for MIC: untitled table, medium/unit not given, values match RPMI of Table 2
[5] = system: Escherichia coli NCTC 12923; type: cell-based; settings: for MIC, Stability in serum (MH) / MIC on initial panels / MIC: EC12923; for MIC on initial panels: medium and unit not given; for MIC on initial panels / MIC: in µg/mL; for MIC: untitled table, medium/unit not given, values match RPMI of Table 2; for MIC, Peptide concentration: NCTC 12923
[6] = system: MS Staphylococcus aureus ATCC 9144; type: cell-based; settings: for MIC on initial panels / MIC: MSSA9144; for MIC on initial panels: medium and unit inferred; for MIC: untitled table, medium/unit not given, values match RPMI of Table 2, in µg/mL
[7] = system: EMR Staphylococcus aureus-15 (EMRSA-15); type: cell-based; settings: for MIC on initial panels / MIC: EMRSA15; for MIC on initial panels: medium and unit inferred; for MIC: untitled table, medium/unit inferred, values match RPMI of Table 2
[8] = system: VS Enterococcus faecalis NCTC 775; test: Antibacterial activity assay (broth microdilution MIC); type: cell-based; settings: for MIC, Peptide concentration: Mueller-Hinton broth; for MIC on initial panels: VSE775, medium and unit not given, in µg/mL
[9] = system: VR Enterococcus faecium NCTC 12204; test: as above; type: cell-based; settings: VRE12204, in µg/mL; for MIC on initial panels: medium and unit not given; for MIC: untitled table, medium/unit not given, values match RPMI of Table 2
VRE12201 = test: as above; type: cell-based, Enterococcus faecalis; settings: medium and unit inferred
Excerpt: Antibacterial activity assay.
The bacterial strains used are as in the above examples. A table of strains is provided below to aid understanding.

HeLa = test: Cytotoxicity assay (XTT); type: cell-based, human; design: Toxicity HeLa: unit not given beside the values; settings: for Toxicity HeLa: unit not given; for Toxicity HeLa (EC50), Peptide concentration: value printed in parentheses
Outline: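 Cells seeded 24 h in EMEM with 10% FBS and NEAA at 37 °C, 10% CO2, then medium replaced with peptide dilutions. After a further 24 h exposure, viability read by XTT tetrazolium staining.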

human red blood cells = test: Haemolysis assay; settings: for Toxicity HC50, Peptide concentration: red cells of human, 1 h
Procedure: Haemolysis assay. Haemolysis was tested by incubating titrations of AMPs in PBS with freshly collected human red blood cells for 1 hour at 37 C. Control wells were treated with 0.1% Triton-X-100 to ensure complete lysis, or PBS-only to represent no lysis. Samples were spun down to remove non-lysed cells and the OD^550 of the supernatant was measured using a Clariostar plate reader. The percentage of haemolysis was calculated as % haemolysis=(AP−AB)/(AC−AB)×100, where AP is the absorbance value for a known peptide concentration, AC is the absorbance of the 0.1% Triton-X-100 control, AB is the absorbance of the PBS control. Data presented are averages and standard error from three biological replicate experiments.
Methods: The natural AMP (termed AMP1) was modified to produce synthetic variants, AMPs 1a, 2a, 2b, 3a and 3b. Minimum inhibitory concentrations (MICs) were determined using the microbroth dilution assay with Mueller Hinton broth (MHB) or RPMI (with 5% FBS) and stability in serum was tested by conducting MICs in MHB containing 10% FBS. Synergy experiments were performed following a checkerboard protocol. Cytotoxicity was tested against HEK293 and HeLa immortalised human cell-lines using the XTT viability stain and by quantifying haemolysis of human red blood cells. Patch clamp analysis was performed using the Port-a-Patch® automated patch-clamp system on DPhPE/DPhPG (model for a Gram-negative plasma membrane) or DPhPG (Gram-positive) model membranes challenged with peptide. The murine lung infection model was performed using the agar bead model with Staphylococcus aureus strain NCTC 13616 (EMRSA-15).

[10] = AYE, Serum (10% fetal bovine serum)

MIC, Stability in serum (MH) ([1]; AYE, No serum) [mg/L] | MIC, Stability in serum (MH) [1, 10] [mg/L] | MIC on initial panels ([1]; AYE) | MIC ([1]; AYE) | MIC on initial panels [2] | MIC [2] | MIC, Stability in serum (MH) ([2]; No serum) | MIC, Stability in serum (MH) ([2]; Serum (10% fetal bovine serum)) | MIC, Stability in serum (MH) ([3]; No serum) | MIC, Stability in serum (MH) ([3]; Serum (10% fetal bovine serum)) | MIC on initial panels [3] | MIC [3] [mg/L] | MIC, Stability in serum (MH) ([4]; No serum) | MIC, Stability in serum (MH) ([4]; Serum (10% fetal bovine serum)) | MIC on initial panels [4] | MIC [4] | MIC, Stability in serum (MH) ([5]; No serum) [mg/L] | MIC, Stability in serum (MH) ([5]; Serum (10% fetal bovine serum)) [mg/L] | MIC on initial panels [5] | MIC [5] | Compound | also measured
2 (≈ 0.709 µM) | 2 (≈ 0.709 µM) | 1-2 | 8-16 | 1 | 8 | 2 | 2 | 4 | >128 | 4 | > 32 | 4 | 32* | 8 | >32 | 2 (≈ 0.709 µM) | 1 (≈ 0.354 µM) | 1 | 16 | CC(C)C[C@H](NC(=O)[C@H](Cc1ccc(O)cc1)NC(=O)[C@H](Cc1c[nH]cn1)NC(=O)[C@@H](NC(=O)[C@H](CC(C)C)NC(=O)[C@H](C)NC(=O)[C@H](C)NC(=O)[C@H](CCCNC(=N)N)NC(=O)CNC(=O)[C@@H](NC(=O)[C@H](Cc1c[nH]cn1)NC(=O)[C@H](CCCNC(=N)N)NC(=O)CNC(=O)[C@@H](NC(=O)[C@H](Cc1c[nH]cn1)NC(=O)[C@H](C)NC(=O)[C@H](C)NC(=O)[C@H](CCCNC(=N)N)NC(=O)[C@H](CCCNC(=N)N)NC(=O)[C@H](Cc1ccccc1)NC(=O)[C@H](Cc1ccccc1)NC(=O)[C@H](CO)NC(=O)CNC(=O)[C@H](Cc1c[nH]c2ccccc12)NC(=O)CN)C(C)C)C(C)C)[C@@H](C)O)C(N)=O [Pleurocidin-KR] (H-GWGSFFRRAAHVGRHVGRAALTHYL-NH2; N-terminus assumed) | MIC, Peptide concentration ([1]; RPMI (value in parentheses)): 8 to 16 mg/L; MIC, Peptide concentration [5]: 16 mg/L (≈ 5.67 µM); MIC on initial panels [6]: 2 mg/L (≈ 0.709 µM); MIC [6]: 4; MIC, Peptide concentration ([7]; EMR -15 (EMRSA-15)): 4 (4) μg/ml; MIC on initial panels [7]: 4 mg/L (≈ 1.42 µM); MIC [7]: 4 mg/L (≈ 1.42 µM); MIC, Peptide concentration [8]: 16 (NG) μg/ml; MIC on initial panels [8]: 16; MIC on initial panels [9]: 4; MIC [9]: 16; MIC on initial panels (VRE12201): 32 mg/L (≈ 11.3 µM); Toxicity HeLa (HeLa): 30.7 ± 2.6; Toxicity HeLa (EC50), Peptide concentration (HeLa): (30.7 ± 2.6) μg/ml; Toxicity HC50, Peptide concentration (human red blood cells): >400 µg/mL
2 (≈ 0.754 µM) | 4 (≈ 1.51 µM) | 2 | 16 | 1-2 | 32 | 2 | 4 | 16* | >128 | 16-32 | > 32 | 16* | >128 | 32 | >32 | 1 (≈ 0.377 µM) | 1 (≈ 0.377 µM) | 1 | 32 | CC(C)C[C@H](NC(=O)[C@H](Cc1ccc(O)cc1)NC(=O)[C@H](Cc1c[nH]cn1)NC(=O)[C@@H](NC(=O)[C@H](CC(C)C)NC(=O)[C@H](C)NC(=O)[C@H](C)NC(=O)[C@H](CCCCN)NC(=O)CNC(=O)[C@H](C)NC(=O)[C@H](Cc1c[nH]cn1)NC(=O)[C@H](CCCCN)NC(=O)CNC(=O)[C@H](C)NC(=O)[C@H](Cc1c[nH]cn1)NC(=O)[C@H](C)NC(=O)[C@H](C)NC(=O)[C@H](CCCCN)NC(=O)[C@H](CCCCN)NC(=O)[C@H](Cc1ccccc1)NC(=O)[C@H](Cc1ccccc1)NC(=O)[C@H](CO)NC(=O)CNC(=O)[C@H](Cc1c[nH]c2ccccc12)NC(=O)CN)[C@@H](C)O)C(N)=O [Pleurocidin-VA] (H-GWGSFFKKAAHAGKHAGKAALTHYL-NH2; N-terminus assumed) | MIC, Peptide concentration ([1]; AYE): 16 mg/L (≈ 6.03 µM); MIC, Peptide concentration [5]: 1 mg/L (≈ 0.377 µM); MIC, Peptide concentration ([6]; ATCC 9144): 8 mg/L (≈ 3.01 µM); MIC on initial panels [6]: 8 mg/L (≈ 3.01 µM); MIC [6]: 32; MIC on initial panels [7]: 64 mg/L (≈ 24.1 µM); MIC [7]: 32 mg/L (≈ 12.1 µM); MIC, Peptide concentration [8]: 64-128 (NG) μg/ml; MIC on initial panels [8]: 64-128; MIC on initial panels [9]: 32-64; MIC [9]: 32; MIC on initial panels (VRE12201): > 128 mg/L; Toxicity HeLa (HeLa): >400; Toxicity HeLa (EC50), Peptide concentration (HeLa): (>400) μg/ml; Toxicity HC50, Peptide concentration (human red blood cells): >>400 μg/ml

Compound | MIC, Stability in serum (MH) ([1]; AYE, No serum) [mg/L] | MIC, Stability in serum (MH) [1, 10] [mg/L] | MIC on initial panels ([1]; AYE) | MIC ([1]; AYE) | MIC on initial panels [2] | MIC [2] | MIC, Stability in serum (MH) ([2]; No serum) | MIC, Stability in serum (MH) ([2]; Serum (10% fetal bovine serum)) | MIC, Stability in serum (MH) ([3]; No serum) | MIC, Stability in serum (MH) ([3]; Serum (10% fetal bovine serum)) | MIC on initial panels [3] | MIC [3] [mg/L] | MIC, Stability in serum (MH) ([4]; No serum) | MIC, Stability in serum (MH) ([4]; Serum (10% fetal bovine serum)) | MIC on initial panels [4] | MIC [4] | MIC, Stability in serum (MH) ([5]; No serum) [mg/L] | MIC, Stability in serum (MH) ([5]; Serum (10% fetal bovine serum)) [mg/L] | MIC on initial panels [5] | MIC [5] | also measured
CC(C)C[C@@H](NC(=O)[C@@H](Cc1ccc(O)cc1)NC(=O)[C@@H](Cc1c[nH]cn1)NC(=O)[C@H](NC(=O)[C@@H](CC(C)C)NC(=O)[C@@H](C)NC(=O)[C@@H](C)NC(=O)[C@@H](CCCNC(=N)N)NC(=O)CNC(=O)[C@H](NC(=O)[C@@H](Cc1c[nH]cn1)NC(=O)[C@@H](CCCNC(=N)N)NC(=O)CNC(=O)[C@H](NC(=O)[C@@H](Cc1c[nH]cn1)NC(=O)[C@@H](C)NC(=O)[C@@H](C)NC(=O)[C@@H](CCCNC(=N)N)NC(=O)[C@@H](CCCNC(=N)N)NC(=O)[C@@H](Cc1ccccc1)NC(=O)[C@@H](Cc1ccccc1)NC(=O)[C@@H](CO)NC(=O)CNC(=O)[C@@H](Cc1c[nH]c2ccccc12)NC(=O)CN)C(C)C)C(C)C)[C@H](C)O)C(N)=O [D-pleurocidin-KR] (HELM PEPTIDE1{G.[dW].G.[dS].[dF].[dF].[dR].[dR].[dA].[dA].[dH].[dV].G.[dR].[dH].[dV].G.[dR].[dA].[dA].[dL].[dT].[dH].[dY].[dL].[am]}$$$$V2.0; N-terminus assumed) | 2 (≈ 0.709 µM) | 0.5 (≈ 0.177 µM) | 2 | 2 | 2 | 4 | 2 | 0.5 | 4 | 4 | 4 | 16 (≈ 5.67 µM) | 4 | 8 | 4 | 16 | 1 (≈ 0.354 µM) | 0.25 (≈ 0.0886 µM) | 1 | 2 | MIC on initial panels [6]: 2 mg/L (≈ 0.709 µM); MIC [6]: 0.25-0.5; MIC on initial panels [7]: 2 mg/L (≈ 0.709 µM); MIC [7]: 0.5 mg/L (≈ 0.177 µM); MIC, Peptide concentration ([7]; Mueller-Hinton broth): 2 µg/mL (≈ 0.709 µM); MIC, Peptide concentration ([7]; Mueller-Hinton broth, listed as D-PLEUROCIDIN-KR): 4 µg/mL (≈ 1.42 µM); MIC, Peptide concentration [8]: 8 (NG) μg/ml; MIC on initial panels [8]: 8; MIC on initial panels [9]: 2; MIC [9]: 2; MIC on initial panels (VRE12201): 8 mg/L (≈ 2.83 µM); Toxicity HeLa (HeLa): 25.3 ± 2.2; Toxicity HeLa (EC50), Peptide concentration (HeLa): (25.3 ± 2.2) μg/ml; therapeutic index over red blood cell haemolysis (human red blood cells): at least 100 fold; Toxicity HC50, Peptide concentration (human red blood cells): ~400 µg/mL
